Laboratory results published in publication PMC4026528 (PLoS ONE, 2014).

Columns and labels:
Type in all cases: cell-based, human
HT-1080 cells = test: Tube formation assay, HT-1080
Method: Soft agar assay and analysis was carried out as previously described. For scratch assay, confluent monolayer of U2OS and HT-1080 cells were subjected to scratch using a sterile pipette tip. Wounded monolayers were washed to remove debris and incubated with SEN461 at different concentrations for 20 hours. After the incubation period, images were taken under an Axiovert 200M (Zeiss) microscope equipped with a CCD camera, and the gap width was measured using MetaMorph 6.3 software (Universal Imaging Corp.) to calculate the area covered by cells (pixels unit). The tube formation assay was performed using growth factor-reduced Matrigel from BD (BD Biosciences; San Jose, CA, USA). Matrigel was thawed overnight at 4°C and was diluted (1∶1) with phenol red-free DMEM without serum. 100 µl of the diluted matrigel was used to coat the wells of a 96 well plate and was allowed to polymerize for 2 hours at 37°C. […] The tube formation was monitored under a phase contrast microscope (Axiovert 200, Zeiss) and imaged using MetaMorph system (Universal Imaging Corp).

[1] = test system: Wnt target gene mRNA in HT-1080 cells; test: Quantitative RT-PCR of Wnt target genes in HT-1080; settings: HT-1080, overnight, 10 µmol/L
Method: RNA extraction and quantitative RT-PCR (qPCR) expression analysis was performed as described previously. Gene expression analysis was performed using the human housekeeping gene RPL13A. Primers for the hAXIN2, hCDC25A, hc-MYC, hFZD4, hDVL2, hCSNK1G and hVEGF-A were the following: Fw: 5′-CAAGGGCCAGGTCACCAA-3′ Rv: 5′-CCCCCAACCCATCTTCGT-3′; Fw: 5′-[…]-3′ Rv: 5′-[…]-3′; Fw: 5′-GGCTCCTGGCAAAAGGTCA-3′ Rv: 5′-[…]-3′; Fw: 5′-[…]-3′ Rv: 5′-[…]-3′; Fw: 5′-[…]-3′ Rv: 5′-GTCTCCCCGCTCATTGCTC-3′; Fw: 5′-[…]-3′ Rv: 5′-[…]-3′; Fw: 5′-[…]-3′ Rv: 5′-[…]-3′.

[2] = test system: U2OS (osteosarcoma) cells; test: Soft agar assay (anchorage-independent growth), U2OS; settings: Homo sapiens
Method: (§1) Soft agar assay and analysis was carried out as previously described. For scratch assay, confluent monolayer of U2OS and HT-1080 cells were subjected to scratch using a sterile pipette tip. Wounded monolayers were washed to remove debris and incubated with SEN461 at different concentrations for 20 hours. After the incubation period, images were taken under an Axiovert 200M (Zeiss) microscope equipped with a CCD camera, and the gap width was measured using MetaMorph 6.3 software (Universal Imaging Corp.) to calculate the area covered by cells (pixels unit). The tube formation assay was performed using growth factor-reduced Matrigel from BD (BD Biosciences; San Jose, CA, USA). Matrigel was thawed overnight at 4°C and was diluted (1∶1) with phenol red-free DMEM without serum. 100 µl of the diluted matrigel was used to coat the wells of a 96 well plate and was allowed to polymerize for 2 hours at 37°C. After equilibrating the gel with the complete growth medium, 15×10^3 cells were seeded in each well and incubated for 20 hours. The tube formation was monitored under a phase contrast microscope (Axiovert 200, Zeiss) and imaged using MetaMorph system (Universal Imaging Corp).

[3] = test system: Axin1, c-Myc, p21 protein in HT-1080 cells; test: Western blotting in HT-1080; settings: HT-1080, overnight
[4] = test system: HT-1080 (fibrosarcoma) cells; test: Soft agar assay (anchorage-independent growth), HT-1080; settings: Homo sapiens
Method: as §1

SMILES | tubule-formation activity (HT-1080 cells; HT-1080, 3 µmol/L, data not shown) | tubule-formation activity (HT-1080 cells; HT-1080, 24 hours exposure, vs DMSO) | c-MYC mRNA [1] | IC50 [2] [nM] | c-Myc protein level [3] | IC50 [4] [nM]
Cc1ccc(C(=O)Nc2ccc(S(=O)(=O)O)c3cc(S(=O)(=O)O)cc(S(=O)(=O)O)c23)cc1NC(=O)c1cccc(NC(=O)Nc2cccc(C(=O)Nc3cc(C(=O)Nc4ccc(S(=O)(=O)O)c5cc(S(=O)(=O)O)cc(S(=O)(=O)O)c45)ccc3C)c2)c1 [Suramin] | complete abrogation of tubule formation | – | – | – | – | –
Oc1nc(-c2ccc(C(F)(F)F)cc2)nc2c1CSCC2 [XAV939, reference compound] | – | did not produce any change | comparable activity | 200 | did not affect c-Myc protein level | 1900
